In brackets after ≈: the same amount, converted by molar mass.
Tests used:
Staphylococcus aureus = test: Disk diffusion zone of inhibition; settings: for Zone of Inhibition, S. aureus: disks with 1-5 μg compound/disk, positive control 5 μg Novobiocin, 22 hours at 37° C., LB agar; for Antibacterial activity against S. aureus, in words: disk diffusion, at the concentration tested
Escherichia coli = test: Disk diffusion zone of inhibition; settings: for Zone of Inhibition, E. coli: disks with 1-5 μg compound/disk, positive control 30 μg Tetracycline, 22 hours at 37° C., LB agar; for Antibacterial activity against E. coli, in words: disk diffusion, at the concentration tested
E. coli = test: Minimum Inhibitory Concentration (MIC) determination, 96-well plates, OD600; settings: for MIC, E. coli: 24 hours at 37° C., compounds tested at 0-40 μg/mL in duplicate, Kanamycin 0-4 μg/mL
S. aureus = test: as above; settings: for MIC, S. aureus: 24 hours at 37° C., compounds tested at 0-5 μg/mL in duplicate, Kanamycin 0-4 μg/mL
[1] = system: Vesicular Stomatitis Virus (Indiana strain); format: cell-based

SMILES | Zone of Inhibition, S. aureus (Staphylococcus aureus) | Zone of Inhibition, E. coli (Escherichia coli) [cm] | Antibacterial activity against S. aureus, in words (Staphylococcus aureus) | Antibacterial activity against E. coli, in words (Escherichia coli) | MIC, E. coli (E. coli) | MIC, S. aureus (S. aureus) | % Plaque Reduction [1] [%] | MIC (E. coli; Escherichia coli, 24 h, read-out: MIC, E. coli) [µg/mL] | MIC (S. aureus; Staphylococcus aureus, 24 h, read-out: MIC, S. aureus) [µg/mL] | zone of inhibition at 5 µg/disc (Staphylococcus aureus; Staphylococcus aureus, 22 h, read-out: Zone of Inhibition, S. aureus) [mm] | zone of inhibition at 30 µg/disc (Escherichia coli; Escherichia coli, 22 h, read-out: Zone of Inhibition, E. coli) [mm]
COC(OC)c1cc[c]([Bi]([c]2ccccc2)[c]2ccccc2)cc1 [Compound 1] | 0 cm | 0 |  |  |  |  |  |  |  |  | 
COc1cc[c]([Bi]([c]2c(C)cc(C)cc2C)[c]2c(C)cc(C)cc2C)cc1 [Compound 2] | 1 cm | 0 | showed antibacterial activity against S. aureus | little activity against E. coli |  |  |  |  |  |  | 
COc1cc[c]([Bi]([c]2ccccc2)[c]2ccccc2)cc1 [Compound 3] | 1 cm | 0 | showed antibacterial activity against S. aureus | little activity against E. coli |  |  |  |  |  |  | 
COC(=O)c1cc[c]([Bi]([c]2ccccc2)[c]2ccccc2)cc1 [Compound 4] | 0 cm | 0 |  |  |  |  |  |  |  |  | 
Cc1cc(C)[c]([Bi]([c]2ccccc2)[c]2ccccc2)c(C)c1 [Compound 5] | 1.6 cm | 0 | most effective against S. aureus | weaker antimicrobial activity against E. coli | 40 µg/mL | 0.625 µg/mL |  |  |  |  | 
N#Cc1cc[c]([Bi]([c]2ccccc2)[c]2ccccc2)cc1 [Compound 6] | 0 cm | 0 |  |  |  |  |  |  |  |  | 
COc1cc[c]([Bi]([c]2ccccc2)[c]2ccc(OC)cc2)cc1 [Compound 7] | 1.1 cm | 0 | showed antibacterial activity against S. aureus | little activity against E. coli |  |  |  |  |  |  | 
Cc1cc(C)[c]([Bi]([c]2ccccc2)[c]2c(C)cc(C)cc2C)c(C)c1 [Compound 8] | 1 cm | 0 | showed antibacterial activity against S. aureus | little activity against E. coli |  |  |  |  |  |  | 
COc1cc[c]([Bi]([c]2ccc(C#N)cc2)[c]2ccc(C#N)cc2)cc1 [Compound 9] | 1 cm | 0 | showed antibacterial activity against S. aureus | little activity against E. coli |  |  |  |  |  |  | 
Cc1cc[c]([Bi]([c]2ccc(C#N)cc2)[c]2ccc(C#N)cc2)cc1 [Compound 10] | 0.9 cm | 0 | showed antibacterial activity against S. aureus | little activity against E. coli |  |  |  |  |  |  | 
Cc1cc[c]([Bi]([c]2c(C)cc(C)cc2C)[c]2c(C)cc(C)cc2C)cc1 [Compound 11] | 0.8 cm | 0 | showed antibacterial activity against S. aureus | little activity against E. coli |  |  |  |  |  |  | 
COc1cc[c]([Bi]([c]2ccc(C)cc2)[c]2ccc(OC)cc2)cc1 [Compound 12] | 1 cm | 0 | showed antibacterial activity against S. aureus | little activity against E. coli |  |  |  |  |  |  | 
Cc1cc(C)[c]([Bi]([c]2ccc(C#N)cc2)[c]2c(C)cc(C)cc2C)c(C)c1 [Compound 13] | 0.9 cm | 0 | showed antibacterial activity against S. aureus | little activity against E. coli |  |  |  |  |  |  | 
Cc1ccc(S(=O)(=O)[O][Bi]([c]2ccccc2)[c]2ccccc2)cc1 [Compound 14] | 2.1 cm | 1.3 | most effective against S. aureus | weaker antimicrobial activity against E. coli | 10 µg/mL | 0.625 µg/mL | 29.7 |  |  |  | 
Cc1ccc(S(=O)(=O)[O][Bi]([O]S(=O)(=O)c2ccc(C)cc2)[c]2ccccc2)cc1 [Compound 16] | 1.8 cm | 1 |  |  | 20 µg/mL | 0.625 µg/mL | 81.8 |  |  |  | 
[I][Bi]([c]1ccccc1)[c]1ccccc1 [Compound 18] | 2.2 cm | 1.3 | most effective against S. aureus | weaker antimicrobial activity against E. coli | 10 µg/mL | 0.625 µg/mL | 99.95 |  |  |  | 
Cc1cc[c]([Bi]([O]S(=O)(=O)c2ccc(C)cc2)[c]2ccc(C)cc2)cc1 [Compound 19] | 1.8 cm | 0.8 | most effective against S. aureus | weaker antimicrobial activity against E. coli | No inhibition | 2.5 µg/mL | 76.6 |  |  |  | 
Cc1cc[c]([Bi]([O]S(=O)(=O)c2ccc(C)cc2)[O]S(=O)(=O)c2ccc(C)cc2)cc1 [Compound 21] | 1.5 cm | 1 | most effective against S. aureus | weaker antimicrobial activity against E. coli | 40 µg/mL | 1.25 μg/mL L | 38.7 |  |  |  | 
Cc1cc[c]([Bi]([O]S(=O)(=O)c2ccc(C)cc2)[O]S(=O)(=O)c2ccc(C)cc2)cc1 [Compound 22] |  | 0 |  |  |  |  |  |  |  |  | 
Cc1cc(C)[c]([Bi]([I])[c]2c(C)cc(C)cc2C)c(C)c1 [Compound 23] | 0.9-1.9 cm | 0.6 | most effective against S. aureus | weaker antimicrobial activity against E. coli |  |  |  |  |  |  | 
NC[C@H]1O[C@H](O[C@H]2[C@H](O)[C@@H](O[C@H]3O[C@H](CO)[C@@H](O)[C@H](N)[C@H]3O)[C@H](N)C[C@@H]2N)[C@H](O)[C@@H](O)[C@@H]1O [Kanamycin, reference compound] |  |  |  |  |  |  |  | 0.0625 (≈ 0.129 µM) | 0.0625 (≈ 0.129 µM) |  | 
CO[C@@H]1[C@@H](OC(N)=O)[C@@H](O)[C@H](Oc2ccc3c(O)c(NC(=O)c4ccc(O)c(CC=C(C)C)c4)c(=O)oc3c2C)OC1(C)C [Novobiocin, reference compound] |  |  |  |  |  |  |  |  |  | 20 to 25 | 
CN(C)[C@@H]1C(O)=C(C(N)=O)C(=O)[C@@]2(O)C(O)=C3C(=O)c4c(O)cccc4[C@@](C)(O)[C@H]3C[C@@H]12 [Tetracycline, reference compound] |  |  |  |  |  |  |  |  |  |  | 18 to 25
